Results published in PMC4399811 (Bioorganic & medicinal chemistry letters, 2015).
Values after ≈ are worked out from the molar mass of the structure shown.

How the values were obtained:
[1] = test system: other mGlu receptors (mGlu1–4,6–8, except mGlu3); assay: selectivity profiling against the other mGlu receptors; assay type: cell-based; settings: read-out: other mGlu EC50; mGlu receptors other than mGlu5 and mGlu3
CYP3A4 = CYP3A4 (Homo sapiens, UniProt P08684); assay: CYP inhibition cocktail assay using HLM and known substrates
CYP3A4, sequence (P08684 whole entry): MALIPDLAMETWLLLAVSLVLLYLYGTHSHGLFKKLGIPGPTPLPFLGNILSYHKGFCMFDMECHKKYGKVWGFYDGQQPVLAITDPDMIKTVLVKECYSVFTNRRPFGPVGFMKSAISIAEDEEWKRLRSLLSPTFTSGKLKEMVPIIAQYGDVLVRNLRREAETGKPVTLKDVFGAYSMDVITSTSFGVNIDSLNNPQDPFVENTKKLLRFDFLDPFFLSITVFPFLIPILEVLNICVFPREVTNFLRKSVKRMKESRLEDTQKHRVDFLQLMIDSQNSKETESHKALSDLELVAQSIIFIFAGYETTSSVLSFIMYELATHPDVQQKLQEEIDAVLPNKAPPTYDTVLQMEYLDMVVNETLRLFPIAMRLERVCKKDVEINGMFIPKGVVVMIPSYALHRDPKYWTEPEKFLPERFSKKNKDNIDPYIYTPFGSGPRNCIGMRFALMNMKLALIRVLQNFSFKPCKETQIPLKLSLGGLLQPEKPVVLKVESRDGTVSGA

mGlu3 [2] = target: T1, mGlu3 (Homo sapiens, UniProt Q14832); assay: cell-based
T1 sequence (Q14832 23-879): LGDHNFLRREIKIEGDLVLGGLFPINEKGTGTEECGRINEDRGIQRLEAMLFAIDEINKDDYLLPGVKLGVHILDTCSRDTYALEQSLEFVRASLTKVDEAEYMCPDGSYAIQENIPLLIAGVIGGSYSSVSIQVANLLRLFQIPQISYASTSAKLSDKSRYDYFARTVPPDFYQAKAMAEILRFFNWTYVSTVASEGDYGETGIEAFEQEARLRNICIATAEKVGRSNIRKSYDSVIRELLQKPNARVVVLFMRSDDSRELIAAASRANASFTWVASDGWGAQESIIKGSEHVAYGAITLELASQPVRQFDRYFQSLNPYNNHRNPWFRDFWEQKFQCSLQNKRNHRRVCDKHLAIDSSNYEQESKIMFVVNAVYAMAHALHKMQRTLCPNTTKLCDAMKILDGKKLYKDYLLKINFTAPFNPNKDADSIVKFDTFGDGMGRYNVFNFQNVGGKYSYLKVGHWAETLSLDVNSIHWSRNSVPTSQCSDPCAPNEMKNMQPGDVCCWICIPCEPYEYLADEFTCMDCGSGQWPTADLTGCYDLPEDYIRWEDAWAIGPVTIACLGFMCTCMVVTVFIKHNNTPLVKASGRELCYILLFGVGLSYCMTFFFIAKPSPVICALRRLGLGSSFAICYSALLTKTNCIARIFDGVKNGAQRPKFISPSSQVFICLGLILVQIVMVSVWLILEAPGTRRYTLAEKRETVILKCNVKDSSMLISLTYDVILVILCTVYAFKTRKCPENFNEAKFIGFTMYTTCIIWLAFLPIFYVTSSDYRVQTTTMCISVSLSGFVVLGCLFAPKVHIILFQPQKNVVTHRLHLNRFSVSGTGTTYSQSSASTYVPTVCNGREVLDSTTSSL

CYP2C9 = CYP2C9 (Homo sapiens, UniProt P11712); assay: CYP inhibition cocktail assay using HLM and known substrates
CYP2C9, sequence (P11712 whole entry): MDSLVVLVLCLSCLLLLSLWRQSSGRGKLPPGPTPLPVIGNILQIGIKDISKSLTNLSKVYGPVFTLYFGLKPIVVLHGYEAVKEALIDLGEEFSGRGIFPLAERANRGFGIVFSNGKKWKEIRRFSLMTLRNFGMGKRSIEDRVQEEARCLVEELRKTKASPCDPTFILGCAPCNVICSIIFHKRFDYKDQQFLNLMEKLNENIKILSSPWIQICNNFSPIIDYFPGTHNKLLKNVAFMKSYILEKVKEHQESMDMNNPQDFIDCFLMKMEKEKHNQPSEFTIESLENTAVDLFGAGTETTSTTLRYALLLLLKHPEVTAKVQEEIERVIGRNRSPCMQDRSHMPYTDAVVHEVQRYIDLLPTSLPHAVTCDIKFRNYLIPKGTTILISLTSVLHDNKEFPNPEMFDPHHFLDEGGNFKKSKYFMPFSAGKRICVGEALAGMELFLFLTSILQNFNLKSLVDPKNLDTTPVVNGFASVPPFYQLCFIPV

CYP2D6 = CYP2D6 (Homo sapiens, UniProt P10635); assay: as above
CYP2D6, sequence (P10635 whole entry): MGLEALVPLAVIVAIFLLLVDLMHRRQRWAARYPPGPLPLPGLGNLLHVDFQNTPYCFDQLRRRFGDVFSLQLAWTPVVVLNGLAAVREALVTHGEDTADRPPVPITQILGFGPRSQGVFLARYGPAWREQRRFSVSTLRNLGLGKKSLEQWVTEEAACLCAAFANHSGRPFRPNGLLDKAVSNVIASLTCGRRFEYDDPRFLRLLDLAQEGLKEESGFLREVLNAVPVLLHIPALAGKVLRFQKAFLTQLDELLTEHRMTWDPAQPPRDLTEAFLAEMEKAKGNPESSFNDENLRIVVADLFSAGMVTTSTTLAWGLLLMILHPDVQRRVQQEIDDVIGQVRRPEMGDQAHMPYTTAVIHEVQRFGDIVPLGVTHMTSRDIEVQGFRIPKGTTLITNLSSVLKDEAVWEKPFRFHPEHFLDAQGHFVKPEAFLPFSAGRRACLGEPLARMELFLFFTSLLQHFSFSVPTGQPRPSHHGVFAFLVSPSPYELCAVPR

CYP1A2 = target: T2, CYP1A2 (Homo sapiens, UniProt P05177); assay: as above
T2 sequence (P05177 1-516): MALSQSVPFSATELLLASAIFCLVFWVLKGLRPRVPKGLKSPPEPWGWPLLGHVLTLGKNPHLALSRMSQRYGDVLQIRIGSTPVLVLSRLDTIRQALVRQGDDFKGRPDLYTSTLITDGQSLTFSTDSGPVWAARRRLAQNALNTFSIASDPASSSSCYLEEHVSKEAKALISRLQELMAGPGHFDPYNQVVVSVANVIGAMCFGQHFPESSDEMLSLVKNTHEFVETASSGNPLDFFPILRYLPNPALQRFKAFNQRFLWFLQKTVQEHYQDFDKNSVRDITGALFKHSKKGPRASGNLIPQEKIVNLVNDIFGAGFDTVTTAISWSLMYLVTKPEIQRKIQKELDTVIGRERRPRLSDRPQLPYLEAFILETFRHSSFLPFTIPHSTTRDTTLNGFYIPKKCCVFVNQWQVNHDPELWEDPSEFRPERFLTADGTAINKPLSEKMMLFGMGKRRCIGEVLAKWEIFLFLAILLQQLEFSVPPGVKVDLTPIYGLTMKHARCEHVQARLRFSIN

mGlu3 [3] = target: T1, mGlu3; settings: NAM
in vivo PK study in rats = settings: rat
rat mGlu5 receptors = rat mGlu5 receptors (Rattus norvegicus, UniProt P31424); assay: 'triple add' calcium mobilization assay, mGlu5 PAM/NAM/agonist modes; assay type: cell-based; settings: for fold increase in mGlu5 potency vs series 3 counterpart: dihydro analogue 4 vs corresponding analogue 3
rat mGlu5 receptors, sequence (P31424 21-1203): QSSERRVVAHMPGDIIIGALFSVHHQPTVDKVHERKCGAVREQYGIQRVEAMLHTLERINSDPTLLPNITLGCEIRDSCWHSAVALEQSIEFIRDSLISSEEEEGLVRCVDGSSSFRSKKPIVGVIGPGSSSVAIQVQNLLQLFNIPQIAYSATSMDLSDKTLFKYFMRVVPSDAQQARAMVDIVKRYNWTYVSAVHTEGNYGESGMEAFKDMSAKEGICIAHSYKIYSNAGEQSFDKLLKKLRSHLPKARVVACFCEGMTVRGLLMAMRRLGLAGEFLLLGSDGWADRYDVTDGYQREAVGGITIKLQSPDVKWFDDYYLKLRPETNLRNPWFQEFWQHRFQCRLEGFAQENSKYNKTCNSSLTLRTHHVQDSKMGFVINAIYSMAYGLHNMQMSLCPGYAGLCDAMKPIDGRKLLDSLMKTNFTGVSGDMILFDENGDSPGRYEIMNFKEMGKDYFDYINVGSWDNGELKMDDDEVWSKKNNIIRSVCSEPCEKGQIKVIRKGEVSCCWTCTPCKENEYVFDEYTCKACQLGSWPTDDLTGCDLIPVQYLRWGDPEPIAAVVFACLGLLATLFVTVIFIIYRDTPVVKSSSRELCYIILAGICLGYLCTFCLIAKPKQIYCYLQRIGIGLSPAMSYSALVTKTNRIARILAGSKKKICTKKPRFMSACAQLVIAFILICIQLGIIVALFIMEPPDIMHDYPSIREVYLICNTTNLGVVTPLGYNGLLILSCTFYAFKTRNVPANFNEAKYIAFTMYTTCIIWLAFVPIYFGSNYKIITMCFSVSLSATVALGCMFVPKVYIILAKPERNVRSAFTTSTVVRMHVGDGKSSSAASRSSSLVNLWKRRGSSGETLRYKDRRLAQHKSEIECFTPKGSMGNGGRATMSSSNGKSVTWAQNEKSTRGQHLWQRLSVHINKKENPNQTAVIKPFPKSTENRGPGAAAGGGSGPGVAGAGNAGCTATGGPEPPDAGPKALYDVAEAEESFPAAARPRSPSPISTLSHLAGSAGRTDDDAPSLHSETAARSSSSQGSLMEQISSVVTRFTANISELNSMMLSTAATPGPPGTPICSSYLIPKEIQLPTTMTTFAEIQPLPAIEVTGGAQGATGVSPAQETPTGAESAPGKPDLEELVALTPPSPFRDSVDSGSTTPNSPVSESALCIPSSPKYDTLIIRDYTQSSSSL

[4] = test system: amphetamine-induced hyperlocomotion; assay: reversal of amphetamine-induced hyperlocomotion; settings: rat
[5] = solubility in fasted simulated intestinal fluid; assay type: physicochemical; settings: fasted simulated intestinal fluid (FaSSIF), pH 7.2, fassif
rats = assay: adverse effects in rats; assay type: in vivo, rat
dogs = assay: adverse effects in in vivo PK studies in dogs; parameters: species or system dog; settings: 0.5 mg/mL i.v.

**Q.** For O=c1n(-c2ccc(F)cc2)ccc2nc(COc3ccccc3)cn12 [3e], which EC50 [1] is on record?
**A.** Its EC50 is over 10 µM.

**Q.** And the IC50 (CYP3A4)?
**A.** Its IC50 is over 20 µM.

**Q.** What about the EC50 (mGlu3 [2]) of the same compound?
**A.** The EC50 was 0.63 µM.

**Q.** And the IC50 (CYP2C9)?
**A.** The IC50 was over 20 µM.

**Q.** And the IC50 (CYP2D6)?
**A.** Its IC50 is over 20 µM.

**Q.** What about the IC50 (CYP1A2) of the same compound?
**A.** Its IC50 is 9.3 µM.

**Q.** For O=C1N(c2ccc(F)cc2)CCc2nc(COc3ccccc3)cn21 [4a], which “mGlu3 % Glu Max” value (mGlu3 [3]) is on record?
**A.** Its value is 3%.

**Q.** What about the clearance (in vivo PK study in rats; in vivo, 1 mg/kg) of the same compound?
**A.** The clearance was 23.3 mL/min/kg.

**Q.** And the “brain AUC” value (in vivo PK study in rats; 0.5-7.0 h)?
**A.** The value was 12.7 µM-h.

**Q.** What about the mGlu5 agonistic activity (rat mGlu5 receptors; up to the highest concentration tested of 30 µM) of the same compound?
**A.** Its mGlu5 agonistic activity is “lack of mGlu5 agonistic activity”.

**Q.** What about the EC50 [1] of the same compound?
**A.** Its EC50 is over 10 µM.

**Q.** What about the “lowest active oral dose, reversal of AIH” value [4] of the same compound?
**A.** The value was 3 mg/kg.

**Q.** What about the EC50 (mGlu3 [2]) of the same compound?
**A.** Its EC50 is 0.29 µM.

**Q.** And the solubility [5]?
**A.** The solubility was 6 µg/mL (≈ 17.8 µM).

**Q.** What about the “CNS-mediated side effects, modified Irwin neurological test battery” value (rats; 120 mg/kg) of the same compound?
**A.** The value was “pro-convulsive behavior”.

**Q.** What about the “adverse effects in PK and pharmacological experiments” value (rats; up to 100 mg/kg p.o.) of the same compound?
**A.** The value was “no significant adverse effects”.

**Q.** And the “CNS-mediated side effects in PK studies” value (dogs)?
**A.** Its value is “dizziness”.

**Q.** With O=C1N(c2cccc(F)c2)CCc2nc(COc3ccccc3)cn21 [4b] as the compound, how does the “fold increase in mGlu5 potency vs series 3 counterpart” value (“fold increase in mGlu5 potency” below) (rat mGlu5 receptors) read?
**A.** Its value is 1.8–2.4 fold.

**Q.** With Cc1cc(N2CCc3nc(COc4ccccc4)cn3C2=O)ccc1F [4c] as the compound, how does the “fold increase in mGlu5 potency” value (rat mGlu5 receptors) read?
**A.** Its value is 1.8–2.4 fold.

**Q.** With O=C1N(c2ccc(F)cc2)CCc2nc(COc3cccc(F)c3)cn21 [4h] as the compound, how does the “fold increase in mGlu5 potency” value (rat mGlu5 receptors) read?
**A.** Its value is at most 3.3 fold.

**Q.** For O=C1N(c2ccc(F)cc2)CCc2nc(COc3ccc(F)cc3)cn21 [4i], which “fold increase in mGlu5 potency” value (rat mGlu5 receptors) is on record?
**A.** Its value is at most 3.3 fold.
